Test results as given in patent US11339161B2, “Triazolo pyridines as modulators of gamma-secretase” (Boehringer Ingelheim International GmbH, priority 2017, dated 2022).

Columns and labels:
[1] = test system: Aβ42 production; assay: Inhibition of Aβ42 production in H4 neuroglioma cells stably expressing human APP695 (MSD electrochemiluminescence); format: cell-based; settings: H4 neuroglioma cells expressing human APP695, 22 hours incubation; Table 4a
Procedure: (§1) Cells were plated out to near confluency. The compounds to be tested were received as 10 mM stocks in 100% DMSO. A dilution series was initially generated in 100% DMSO and then diluted 200-fold in cell culture media such that the tested concentration range was 30 μM to 0.1 nM and the final DMSO concentration was 0.5%. The diluted compounds were incubated with the cells for 22 hours in an incubator at 37° C. and 5% CO2. Aβ42 levels were measured post-incubation from the supernatant of the cells using an Aβ42 specific electrochemiluminescence assay provided by Meso Scale Discovery (Catalog #L21CA-1). The measurement of Aβ42 levels were performed according to the manufacturer's protocol.

[2] = test system: Aβ total; assay: Aβ total levels in H4 neuroglioma cells stably expressing human APP695 (MSD electrochemiluminescence); format: cell-based; settings: selectivity ratio vs. Aβtotal, Table 4a
Procedure: as §1
Aβ total levels were likewise determined using a specific electrochemiluminescence assay provided by Meso Scale Discovery (Catalog #L21ZA-1) according to the manufacturer's protocol.

[3] = target: ABL1 (Homo sapiens, UniProt P00519); settings: Z'-Lyte substrate Tyr 02, ATP bin 10 μM (ATP Km app 12 μM), read-out: IC50 of known inhibitor (inhibitor validation); cited from earlier work
[4] = target: CSF1R (FMS) (Homo sapiens, UniProt P07333); settings: substrate Tyr 01, ATP bin 500 μM (ATP Km app 450 μM), read-out: IC50 of known inhibitor (inhibitor validation); cited from earlier work
[5] = target: LYN B (Homo sapiens, UniProt P07948); settings: substrate Tyr 02, ATP bin 25 μM (ATP Km app 25 μM), read-out: IC50 of known inhibitor (inhibitor validation); cited from earlier work
LYN B, sequence (P07948 1-491 isoform P07948-2): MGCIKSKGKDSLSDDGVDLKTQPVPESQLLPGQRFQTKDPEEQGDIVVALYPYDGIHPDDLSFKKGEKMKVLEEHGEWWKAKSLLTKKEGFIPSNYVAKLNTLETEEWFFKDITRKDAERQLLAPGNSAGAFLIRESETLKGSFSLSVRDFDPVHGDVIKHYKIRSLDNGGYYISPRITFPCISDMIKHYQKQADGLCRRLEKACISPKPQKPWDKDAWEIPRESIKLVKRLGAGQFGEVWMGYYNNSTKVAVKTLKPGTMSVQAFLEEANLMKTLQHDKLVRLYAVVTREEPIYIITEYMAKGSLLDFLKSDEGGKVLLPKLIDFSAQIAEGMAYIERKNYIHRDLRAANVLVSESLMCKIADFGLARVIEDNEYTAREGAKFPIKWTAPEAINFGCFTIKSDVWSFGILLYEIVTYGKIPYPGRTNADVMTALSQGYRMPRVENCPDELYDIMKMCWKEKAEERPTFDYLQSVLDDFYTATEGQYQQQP

CSF1R (FMS), sequence (P07333 20-972): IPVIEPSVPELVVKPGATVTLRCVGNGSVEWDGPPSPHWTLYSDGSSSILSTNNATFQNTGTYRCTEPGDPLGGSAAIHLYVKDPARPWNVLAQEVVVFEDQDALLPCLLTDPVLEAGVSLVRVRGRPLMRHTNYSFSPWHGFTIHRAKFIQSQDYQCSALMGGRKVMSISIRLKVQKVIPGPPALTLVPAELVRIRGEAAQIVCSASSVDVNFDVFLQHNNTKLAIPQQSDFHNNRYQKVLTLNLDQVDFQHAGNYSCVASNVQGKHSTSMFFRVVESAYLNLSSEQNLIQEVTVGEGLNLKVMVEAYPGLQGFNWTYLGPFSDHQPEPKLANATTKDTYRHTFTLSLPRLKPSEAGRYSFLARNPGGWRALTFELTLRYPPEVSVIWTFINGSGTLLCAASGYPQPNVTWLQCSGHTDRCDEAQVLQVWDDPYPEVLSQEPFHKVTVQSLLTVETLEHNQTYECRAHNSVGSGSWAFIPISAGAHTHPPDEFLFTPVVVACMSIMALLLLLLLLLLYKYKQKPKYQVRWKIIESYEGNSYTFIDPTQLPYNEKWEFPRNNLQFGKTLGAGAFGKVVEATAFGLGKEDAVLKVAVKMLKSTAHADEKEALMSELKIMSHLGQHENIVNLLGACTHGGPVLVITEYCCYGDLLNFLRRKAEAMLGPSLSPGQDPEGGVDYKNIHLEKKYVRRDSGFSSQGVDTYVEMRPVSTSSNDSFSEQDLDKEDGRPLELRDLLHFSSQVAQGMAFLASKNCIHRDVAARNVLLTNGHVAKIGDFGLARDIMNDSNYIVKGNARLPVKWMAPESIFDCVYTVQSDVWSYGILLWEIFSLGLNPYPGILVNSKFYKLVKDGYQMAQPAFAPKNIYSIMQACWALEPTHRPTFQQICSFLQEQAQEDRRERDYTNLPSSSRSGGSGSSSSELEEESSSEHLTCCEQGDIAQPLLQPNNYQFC
ABL1, sequence (P00519 whole entry): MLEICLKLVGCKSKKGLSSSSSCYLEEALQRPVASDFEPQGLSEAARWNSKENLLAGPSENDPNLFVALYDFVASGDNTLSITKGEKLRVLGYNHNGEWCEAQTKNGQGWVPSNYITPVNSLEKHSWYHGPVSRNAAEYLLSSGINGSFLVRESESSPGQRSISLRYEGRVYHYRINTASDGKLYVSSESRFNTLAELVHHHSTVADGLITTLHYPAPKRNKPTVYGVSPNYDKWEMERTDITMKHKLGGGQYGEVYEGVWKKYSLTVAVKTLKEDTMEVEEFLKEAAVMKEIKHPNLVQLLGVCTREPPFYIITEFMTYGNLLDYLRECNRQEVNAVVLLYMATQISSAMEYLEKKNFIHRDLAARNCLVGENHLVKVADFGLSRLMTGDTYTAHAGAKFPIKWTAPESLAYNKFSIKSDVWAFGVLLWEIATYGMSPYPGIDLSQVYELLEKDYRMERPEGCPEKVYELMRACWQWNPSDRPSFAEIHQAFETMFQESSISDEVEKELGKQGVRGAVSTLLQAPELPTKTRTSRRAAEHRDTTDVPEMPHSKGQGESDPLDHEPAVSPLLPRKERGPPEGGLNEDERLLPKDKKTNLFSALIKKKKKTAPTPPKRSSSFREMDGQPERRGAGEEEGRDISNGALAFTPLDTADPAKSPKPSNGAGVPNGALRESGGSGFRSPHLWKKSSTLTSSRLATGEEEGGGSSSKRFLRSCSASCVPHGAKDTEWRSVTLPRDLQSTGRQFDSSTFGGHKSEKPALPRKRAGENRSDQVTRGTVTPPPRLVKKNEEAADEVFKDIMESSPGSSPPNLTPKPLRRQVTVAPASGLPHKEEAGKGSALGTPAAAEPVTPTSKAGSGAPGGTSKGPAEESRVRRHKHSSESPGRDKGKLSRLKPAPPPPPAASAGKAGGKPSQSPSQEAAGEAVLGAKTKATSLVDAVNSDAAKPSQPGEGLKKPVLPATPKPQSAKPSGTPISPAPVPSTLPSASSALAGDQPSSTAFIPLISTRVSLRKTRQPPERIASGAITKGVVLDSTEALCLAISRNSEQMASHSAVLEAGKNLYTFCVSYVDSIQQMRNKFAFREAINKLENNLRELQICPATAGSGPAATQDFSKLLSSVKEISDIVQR

SMILES | IC50 [1] | Ratio AβTotal IC50/Aβ42 IC50 [2] | IC50 [3] | IC50 [4] | IC50 [5]
CCc1nnc2n1CCC(Nc1nc3c(-c4ccc(F)cc4C)cccn3n1)C2 (stereo not drawn) [Example 53, (3-Ethyl-5,6,7,8-tetrahydro-[1,2,4]triazolo[4,3-a]pyridine-7-yl)-[8-(4-fluoro-2-methyl-phenyl)-[1,2,4]triazolo[1,5-a]pyridine-2-yl]-amine] | 1390 nM | 1 | – | – | –
CCc1nnn2c1CCC(Nc1nc3c(-c4ccc(F)cc4C)cccn3n1)C2 (stereo not drawn) [Example 52, (3-Ethyl-4,5,6,7-tetrahydro-[1,2,3]triazolo[1,5-a]pyridine-6-yl)-[8-(4-fluoro-2-methyl-phenyl)-[1,2,4]triazolo[1,5-a]pyridine-2-yl]-amine] | 740 nM | 2 | – | – | –
CCOC1Cc2c(cnn2CC)CC1Nc1nc2c(-c3cc(F)c(F)c(F)c3)cccn2n1 (stereo not drawn) [Example 50, (6-Ethoxy-1-ethyl-4,5,6,7-tetrahydro-1H-indazol-5-yl)-[8-(3,4,5-trifluoro-phenyl)-[1,2,4]triazolo[1,5-a]pyridine-2-yl]-amine] | 21700 nM | 1 | – | – | –
CCn1ncc2c1CCC(Nc1nc3c(-c4ccccc4Cl)cccn3n1)C2 (stereo not drawn) [Example 58, [8-(2-Chloro-phenyl)-[1,2,4]triazolo[1,5-a]pyridine-2-yl]-(1-ethyl-4,5,6,7-tetrahydro-1H-indazol-5-yl)-amine] | 60 nM | 34 | – | – | –
COc1cc2ncnc(Nc3cccc(Cl)c3)c2cc1OC [Tyrphostin AG1478] | – | – | 421 nM | 4420 nM | 242 nM
Cc1cc(F)ccc1-c1cccn2nc(NC3CCc4[nH]ncc4C3)nc12 (stereo not drawn) [Example 41, [8-(4-Fluoro-2-methyl-phenyl)-[1,2,4]triazolo[1,5-a]pyridine-2-yl]-(4,5,6,7-tetrahydro-1H-indazol-5-yl)-amine] | 4570 nM | 1 | – | – | –

The next lines start with results.

IC50 [1] | SMILES | Ratio AβTotal IC50/Aβ42 IC50 [2] | IC50 [3] | IC50 [4] | IC50 [5]
30 nM | CCn1ncc2c1CCC(Nc1nc3c(-c4cc(F)c(F)c(F)c4)cccn3n1)C2 (stereo not drawn) [Example 62, (1-Ethyl-4,5,6,7-tetrahydro-1H-indazol-5-yl)-[8-(3,4,5-trifluoro-phenyl)-[1,2,4]triazolo[1,5-a]pyridine-2-yl]-amine] | 128 | – | – | –
680 nM | CCn1ncc2c1CCC(Nc1nc3c(-c4cccnc4C)cccn3n1)C2 (stereo not drawn) [Example 65, (1-Ethyl-4,5,6,7-tetrahydro-1H-indazol-5-yl)-[8-(2-methyl-pyridin-3-yl)-[1,2,4]triazolo[1,5-a]pyridine-2-yl]-amine] | 44 | – | – | –
60 nM | CCn1ncc2c1CCC(Nc1nc3c(-c4ccc(Cl)cc4)cccn3n1)C2 (stereo not drawn) [Example 60, [8-(4-Chloro-phenyl)-[1,2,4]triazolo[1,5-a]pyridine-2-yl]-(1-ethyl-4,5,6,7-tetrahydro-1H-indazol-5-yl)-amine] | 113 | – | – | –
50 nM | CCn1ncc2c1CCC(Nc1nc3c(-c4ccc(N(C)C)nc4)cccn3n1)C2 (stereo not drawn) [Example 72, [8-(6-Dimethylamino-pyridin-3-yl)-[1,2,4]triazolo[1,5-a]pyridine-2-yl]-(1-ethyl-4,5,6,7-tetrahydro-1H-indazol-5-yl)-amine] | 538 | – | – | –
200 nM | CCn1ncc2c1CCC(Nc1nc3c(-c4cncc(C)c4)cccn3n1)C2 (stereo not drawn) [Example 66, (1-Ethyl-4,5,6,7-tetrahydro-1H-indazol-5-yl)-[8-(5-methyl-pyridin-3-yl)-[1,2,4]triazolo[1,5-a]pyridine-2-yl]-amine] | 154 | – | – | –
20 nM | CCn1ncc2c1CCC(Nc1nc3c(-c4ccc(F)c(Cl)c4)cccn3n1)C2 (stereo not drawn) [Example 61, [8-(3-Chloro-4-fluoro-phenyl)-[1,2,4]triazolo[1,5-a]pyridine-2-yl]-(1-ethyl-4,5,6,7-tetrahydro-1H-indazol-5-yl)-amine] | 152 | – | – | –
730 nM | CCn1ncc2c1CCC(Nc1nc3c(-c4cnccc4C)cccn3n1)C2 (stereo not drawn) [Example 64, (1-Ethyl-4,5,6,7-tetrahydro-1H-indazol-5-yl)-[8-(4-methyl-pyridin-3-yl)-[1,2,4]triazolo[1,5-a]pyridine-2-yl]-amine] | 41 | – | – | –
